Reference: patent US20220081412A1, “QUINOLINYL-PYRAZINE-CARBOXAMIDE COMPOUNDS AND USES THEREOF” (The Regents of the University of Michigan, priority 2018, published 2022)

Test system: MIA PaCa-2 cells
Assay: Bru-seq analysis for nascent RNA synthesis (log2FC of genes, GSEA gene sets)
Format: cell-based, human
[1] = downregulated gene sets, TFBT, 4 h, MIA PaCa-2 cells
[2] = gene set ADDYA_ERYTHROID_DIFFERENTIATION_BY_HEMIN, 4 h
[3] = gene set AMIT_SERUM_RESPONSE_60_MCF10A, 4 h
[4] = gene set BURTON_ADIPOGENESIS_10, 4 h
[5] = gene set CHANG_CORE_SERUM_RESPONSE_DN, 4 h
[6] = gene set CUI_GLUCOSE_DEPRIVATION, 4 h
[7] = gene set DACOSTA_UV_RESPONSE_VIA_ERCC3_UP, 4 h
[8] = gene set DAZARD_RESPONSE_TO_UV_NHEK_UP, 4 h
[9] = gene set DIRMEIER_LMP1_RESPONSE_EARLY, 4 h
[10] = gene set ENK_UV_RESPONSE_KERATINOCYTE_UP, 4 h
[11] = gene set GEORGANTAS_HSC_MARKERS, 4 h
[12] = gene set GO_ALCOHOL_BIOSYNTHETIC_PROCESS, 4 h
[13] = gene set GO_ALCOHOL_METABOLIC_PROCESS, 4 h
[14] = gene set GO_CELLULAR_LIPID_CATABOLIC_PROCESS, 4 h
[15] = gene set GO_CELLULAR_RESPONSE_TO_TOPOLOGICALLY_INCORRECT_PROTEIN, 4 h
[16] = gene set GO_CHROMATIN_ASSEMBLY_OR_DISASSEMBLY, 4 h
[17] = gene set GO_DNA_PACKAGING_COMPLEX, 4 h
[18] = gene set GO_ER_NUCLEUS_SIGNALING_PATHWAY, 4 h
[19] = gene set GO_FATTY_ACID_BIOSYNTHETIC_PROCESS, 4 h
[20] = gene set GO_INTRINSIC_COMPONENT_OF_ENDOPLASMIC_RETICULUM_MEMBRANE, 4 h
[21] = gene set GO_IRE1_MEDIATED_UNFOLDED_PROTEIN_RESPONSE, 4 h
[22] = gene set GO_ISOPRENOID_BIOSYNTHETIC_PROCESS, 4 h
[23] = gene set GO_LYSOSOMAL_LUMEN, 4 h
[24] = gene set GO_NUCLEAR_NUCLEOSOME, 4 h
[25] = gene set GO_ORGANIC_HYDROXY_COMPOUND_BIOSYNTHETIC_PROCESS, 4 h
[26] = gene set GO_PROTEIN_DNA_COMPLEX, 4 h
[27] = gene set GO_PROTEIN_DNA_COMPLEX_SUBUNIT_ORGANIZATION, 4 h
[28] = gene set GO_REGULATION_OF_ENDOPLASMIC_RETICULUM_STRESS_INDUCED_INTRINSIC_APOPTOTIC_SIGNALING_PATHWAY, 4 h
[29] = gene set GO_RESPONSE_TO_ENDOPLASMIC_RETICULUM_STRESS, 4 h
[30] = gene set GO_RESPONSE_TO_TOPOLOGICALLY_INCORRECT_PROTEIN, 4 h
[31] = gene set GO_SMALL_MOLECULE_BIOSYNTHETIC_PROCESS, 4 h
[32] = gene set GO_STEROID_BIOSYNTHETIC_PROCESS, 4 h
[33] = gene set GO_STEROID_METABOLIC_PROCESS, 4 h
[34] = gene set GO_STEROL_BIOSYNTHETIC_PROCESS, 4 h
[35] = gene set GO_STEROL_METABOLIC_PROCESS, 4 h
[36] = gene set HALLMARK_ADIPOGENESIS, 4 h
[37] = gene set HALLMARK_ANDROGEN_RESPONSE, 4 h
[38] = gene set HALLMARK_APOPTOSIS, 4 h
[39] = gene set HALLMARK_CHOLESTEROL_HOMEOSTASIS, 4 h
[40] = gene set HALLMARK_COAGULATION, 4 h
[41] = gene set HALLMARK_DNA_REPAIR, 4 h
[42] = gene set HALLMARK_EPITHELIAL_MESENCHYMAL_TRANSITION, 4 h
[43] = gene set HALLMARK_ESTROGEN_RESPONSE_EARLY, 4 h
[44] = gene set HALLMARK_ESTROGEN_RESPONSE_LATE, 4 h
[45] = gene set HALLMARK_FATTY_ACID_METABOLISM, 4 h
[46] = gene set HALLMARK_GLYCOLYSIS, 4 h
[47] = gene set HALLMARK_HEME_METABOLISM, 4 h

With CCN(CC)CCCC(C)Nc1cnc(C(=O)Nc2cc(C)cc3cccnc23)cn1 (stereo not drawn) [J4, 5-((5-(diethylamino)pentan-2-yl)amino)-N-(6-methylquinolin-8-yl)pyrazine-2-carboxamide] the “ES PBX1_02” value [1] was −0.282, the “ES PIT1_Q6” value [1] was −0.263 and the “ES POU1F1_Q6” value [1] was −0.236. The “ES TAANNYSGCG_UNKNOWN” value [1] was −0.253, the “ES TAAWWATAG_RSRFC4_Q2” value [1] was −0.271 and the “ES TAAYNRNNTCC_UNKNOWN” value [1] was −0.314. The “ES YKACATTT_UNKNOWN” value [1] was −0.221, the “NES BRN2_01” value [1] was −1.086 and the “NES CDPCR1_01” value [1] was −1.030. The “NES CDP_01” value [1] was −1.041, the “NES EN1_01” value [1] was −1.062 and the “NES FOXJ2_02” value [1] was −1.154. For the same compound, the “NES GGCKCATGS_UNKNOWN” value [1] was −1.621, the “NES HMEF2_Q6” value [1] was −1.037 and the “NES HNF1_Q6” value [1] was −1.145. For the same compound, the “NES HOX13_01” value [1] was −1.144, the “NES IK1_01” value [1] was −1.074 and the “NES IRF2_01” value [1] was −1.322. The “NES MEF2_02” value [1] was −0.965, the “NES MEF2_Q6_01” value [1] was −0.985 and the “NES MEIS1BHOXA9_01” value [1] was −1.269. For the same compound, the “NES NKX3A_01” value [1] was −1.213, the “NES PAX8_01” value [1] was −1.304 and the “NES PBX1_02” value [1] was −1.130. For the same compound, the “NES PIT1_Q6” value [1] was −1.156, the “NES POU1F1_Q6” value [1] was −1.032 and the “NES TAANNYSGCG_UNKNOWN” value [1] was −1.012. The “NES TAAWWATAG_RSRFC4_Q2” value [1] was −1.112, the “NES TAAYNRNNTCC_UNKNOWN” value [1] was −1.303 and the “NES YKACATTT_UNKNOWN” value [1] was −1.039. For the same compound, the ES [2] was 0.708, the NES [2] was 2.307 and the ES [3] was 0.728. For the same compound, the NES [3] was 2.228, the ES [4] was 0.790 and the NES [4] was 2.254. The ES [5] was 0.624, the NES [5] was 2.370 and the ES [6] was 0.760. It also gave an NES [6] of 2.383, an ES [7] of 0.569 and an NES [7] of 2.301. It also gave an ES [8] of 0.602, an NES [8] of 2.291 and an ES [9] of 0.764. It also gave an NES [9] of 2.410, an ES [10] of 0.590 and an NES [10] of 2.464. For the same compound, the ES [11] was 0.736, the NES [11] was 2.234 and the ES [12] was 0.728. It also gave an NES [12] of 2.531, an ES [13] of 0.543 and an NES [13] of 2.127. It also gave an ES [14] of 0.577, an NES [14] of 2.080 and an ES [15] of 0.635. The NES [15] was 2.333, the ES [16] was 0.576 and the NES [16] was 2.165. It also gave an ES (gene set GO_DNA_PACKAGING, 4 h) of 0.570, an NES (gene set GO_DNA_PACKAGING, 4 h) of 2.161 and an ES [17] of 0.755. The NES [17] was 2.422, the ES [18] was 0.739 and the NES [18] was 2.156. The ES [19] was 0.626, the NES [19] was 2.043 and the ES [20] was 0.577. The NES [20] was 2.075, the ES [21] was 0.690 and the NES [21] was 2.300. It also gave an ES [22] of 0.796, an NES [22] of 2.093 and an ES [23] of 0.637. It also gave an NES [23] of 2.060, an ES [24] of 0.832 and an NES [24] of 2.218. For the same compound, the ES [25] was 0.651, the NES [25] was 2.372 and the ES [26] was 0.619. For the same compound, the NES [26] was 2.288, the ES [27] was 0.521 and the NES [27] was 2.041. The ES [28] was 0.774, the NES [28] was 2.132 and the ES [29] was 0.526. For the same compound, the NES [29] was 2.067, the ES [30] was 0.616 and the NES [30] was 2.337. It also gave an ES [31] of 0.555, an NES [31] of 2.227 and an ES [32] of 0.784. It also gave an NES [32] of 2.632, an ES [33] of 0.667 and an NES [33] of 2.432. For the same compound, the ES [34] was 0.878, the NES [34] was 2.656 and the ES [35] was 0.748. The NES [35] was 2.604, the ES [36] was 0.465 and the NES [36] was 1.784. It also gave an ES [37] of 0.529, an NES [37] of 1.875 and an ES [38] of 0.485. It also gave an NES [38] of 1.804, an ES [39] of 0.759 and an NES [39] of 2.533. The ES [40] was 0.516, the NES [40] was 1.624 and the ES [41] was 0.377. It also gave an NES [41] of 1.422, an ES [42] of 0.407 and an NES [42] of 1.436. It also gave an ES [43] of 0.458, an NES [43] of 1.719 and an ES [44] of 0.443. For the same compound, the NES [44] was 1.631, the ES [45] was 0.551 and the NES [45] was 2.054. The ES [46] was 0.417, the NES [46] was 1.603 and the ES [47] was 0.389. For the same compound, the NES [47] was 1.480, the ES (gene set HALLMARK_HYPOXIA, 4 h) was 0.591 and the NES (gene set HALLMARK_HYPOXIA, 4 h) was 2.235.
